Measurements from publication PMC7284125, “Identification of annotated bioactive molecules that impair motility of the blood fluke Schistosoma mansoni” (International Journal for Parasitology: Drugs and Drug …, 2020).
Read-outs that look alike come from different tables or passages of the source.

Key:
[1] = test system: S. mansoni schistosomulae; experiment: Phenotypic primary screen assay on schistosomulae (phenotype; viability by methylene blue dye exclusion); format: cell-based, Schistosoma mansoni; details: three-day-old schistosomulae, 10 μM, 24 h; estimated 5 days post compound exposure
In short: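 Parasites lacking contraction/relaxation cycles and showing dark internal granulations counted as dead. Movement and body shape were compared with DMSO-treated controls under a stereo microscope at 24 h and at five days of exposure. Larvae came from infected snails shed under light for 2 h at 32 °C.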

[2] = test system: S. mansoni schistosomulae; experiment: Motility assay on schistosomulae (pixel displacement, relative to DMSO control); format: cell-based, Schistosoma mansoni; details: for activity at 1 µM: Schistosoma mansoni, read-out: Fractional motility; for motility in extended assay with reduced incubation times, in words: three-day old schistosomulae, incubation 1 h, 3 h, 6 h
In short: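 Mechanically transformed S. mansoni schistosomulae (200/well) in Opti-MEM with 5% dialyzed FBS were exposed to compounds at 1 and 10 μM for 24 h at 37 °C, 5% CO2. Motility filmed at 10 frames/s for 1 min and quantified by pixel displacement relative to DMSO-treated controls.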

S. mansoni adult worms = experiment: Motility assay on adult parasites (pixel displacement, relative to DMSO control); format: cell-based, Schistosoma mansoni; details: 10 μM; for Fractional motility: secondary screen
In short: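 Unpaired adult worms from mice 6 weeks post-infection kept in OPTI-MEM with 5% dialyzed FBS and exposed to compounds at 1 and 10 μM for 24 h. Motility filmed 1 min at 10 frames/s, quantified by pixel displacement versus DMSO-treated worms; recovery followed up to five days after washout.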

[3] = test system: S. mansoni schistosomulae; experiment: Phenotypic primary screen assay on schistosomulae (phenotype; viability by methylene blue dye exclusion); format: cell-based; details: Schistosoma mansoni; three-day-old schistosomulae, 10 μM, 24 h; calculated 5 days post compound exposure; read-out: Viability (%)
[4] = 120 h, schistosomulae, secondary screen, 24h exposure, read at D5, 1 µM
[5] = schistosomulae, secondary screen, 24h exposure, read at D1, 1 µM
[6] = schistosomulae, 1h exposure, read at D1, 10 µM
[7] = schistosomulae, 1h exposure, read at D5, 10 µM
[8] = schistosomulae, 3h exposure, read at D1, 10 µM
[9] = schistosomulae, 3h exposure, read at D5, 10 µM
[10] = schistosomulae, 6h exposure, read at D1, 10 µM
[11] = schistosomulae, 6h exposure, read at D5, 10 µM
[12] = schistosomulae, secondary screen, 24h exposure, read at D1, 10 µM
[13] = schistosomulae, secondary screen, 24h exposure, read at D5, 10 µM
[14] = Selleckchem customized library secondary screen, 24h, D1, 10 µM
[15] = Selleckchem customized library secondary screen, 24h, D5, 10 µM
[16] = 120 h, Selleckchem customized library secondary screen, 24h, D5, 1 µM

| Compound | Phenotype [1] | activity at 1 µM [2, 4] | activity at 1 µM [2, 5] | Fractional motility [2, 12] | Fractional motility [2, 13] | Fractional motility (S. mansoni adult worms; D1, Female adult worms) | Fractional motility (S. mansoni adult worms; D1, Male adult worms) | Fractional motility (S. mansoni adult worms; D5, Female adult worms) | Fractional motility (S. mansoni adult worms; D5, Male adult worms) | viability at 10 µM [3] | other results |
| --- | --- | --- | --- | --- | --- | --- | --- | --- | --- | --- | --- |
| O=C1Cc2cc(CCN3CCN(c4nsc5ccccc45)CC3)c(Cl)cc2N1 [Ziprasidone] | dark, granulated | -73% | 0.0588% | 10.63 | -1.00 | 1.30 | 0.47 | -0.12 | 0.73 | 2.5% | Fractional motility [2, 6]: 9.35; Fractional motility [2, 7]: -0.16; Fractional motility [2, 8]: 8.26; Fractional motility [2, 9]: -0.06; Fractional motility [2, 10]: 0.49; Fractional motility [2, 11]: 0.31; hypermotility relative to control ([2]; schistosomulae, after 24 h incubation): 11 ± 2 fold; motility phenotype in words ([2]; schistosomulae, long-term, five days after compound washout): all parasites became paralyzed; motility in extended assay with reduced incubation times, in words [2]: did not exhibit a significant change before the 24 hr incubation cut-off |
| CNCCC(Oc1ccc(C(F)(F)F)cc1)c1ccccc1 (centres unmarked) [Fluoxetine] | elongated | 105% |  | 15.72 | 0.95 | 1.96 | 2.26 | 0.45 | -0.0243 | 98.5% |  |
| CN(C)[C@@H](CCOc1cccc2ccccc12)c1ccccc1 [Dapoxetine] | elongated, granulated |  |  |  |  | 2.14 | 2.05 | -0.24 | -0.50 | 97.5% | activity at 1 µM ([2]; Selleckchem customized library secondary screen, 24h, D1, 1 µM): 253%; Fractional motility [2, 14]: 69.58; Fractional motility [2, 15]: 15.51 |
| C=CC(=O)N1CCC[C@@H](n2nc(-c3ccc(Oc4ccccc4)cc3)c3c(N)ncnc32)C1 [Ibrutinib] | dark, granulated | 244% | -18% | 0.000588 | -0.29 | 0.33 | 2.36 | 0.36 | 0.94 | 84.5% |  |
| C[C@]12CC[C@@H]3c4ccc(O)cc4CC[C@H]3[C@@H]1CC[C@@H]2O [Estradiol] | blebbing | 23% | 87% | 2.93 | 0.31 | -0.35 | 0.83 | 0.13 | 0.26 | 98% |  |
| C=C1C(=O)O[C@@H]2/C=C(\C)CC/C=C(\C)CC[C@@H]12 [Costunolide] | big, granulated | 16% | -57% | -0.92 | -0.94 | -0.10 |  | -0.83 |  | 1.5% | Fractional motility [2, 6]: -0.77; Fractional motility [2, 7]: -0.29; Fractional motility [2, 8]: 0.34; Fractional motility [2, 9]: 1.03; Fractional motility [2, 10]: 2.25; Fractional motility [2, 11]: -0.56; motility in extended assay with reduced incubation times, in words [2]: did not exhibit a significant change before the 24 hr incubation cut-off |
| Cc1c(C(=O)NN2CCCCC2)nn(-c2ccc(Cl)cc2Cl)c1-c1ccc(Cl)cc1 [Rimonabant] | abnormal morphology, granulated | -21% | 433% | 12.27 | 4.07 | -0.30 | 0.0659 | -0.41 | -0.55 | 98.5% |  |
| CN1CCN(C2=Nc3cc(Cl)ccc3Nc3ccccc32)CC1 [Clozapine] | elongated | 121% | 625% | 23.43 | -0.13 | 2.39 | 2.19 | -0.70 | 0.45 | 98% |  |
| C=CC[C@]1(O)CC[C@H]2[C@@H]3CCC4=CC(=O)CCC4=C3C=C[C@@]21C [Altrenogest] | elongated | -12% | 147% | 10.00 | -0.06 | -0.04 | -0.0348 | -0.50 | 0.0449 | 90% |  |
| C=CC(=O)Nc1cccc(Oc2nc(Nc3ccc(N4CCN(C)CC4)cc3OC)ncc2Cl)c1 [WZ4002] | dark, granulated | 51% | -58% |  | -0.62 | 0.66 | 0.64 | -0.61 | 1.33 | 7% | motility phenotype in words (S. mansoni adult worms; adults, long-term after washout): hypermotility in male worms and hypomotility in females |
| CCN(CC)CCOc1ccc(C(=C(Cl)c2ccccc2)c2ccccc2)cc1 [Clomifene] | big, granulated | 49% | 12% | 1.47 | 0.15 | -0.44 |  | -0.03 | -0.17 | 100% |  |
| Cc1cccc(C(C)c2cnc[nH]2)c1C (centres unmarked) [Medetomidine] | elongated | 10% | -39% | -0.24 | 0.20 | 1.05 | 2.75 | -0.85 | 0.31 | 100% |  |
| COCCCC/C(=N\OCCN)c1ccc(C(F)(F)F)cc1 [Fluvoxamine] | elongated | 99% | 812% | 10.49 | 3.18 | 1.69 | 4.13 | 0.13 | 0.22 | 97% |  |
| CN(C)CC/C=C1/c2ccccc2Sc2ccc(Cl)cc21 [Chlorprothixene] | elongated |  |  |  |  | 2.18 | 2.53 | 0.23 | 0.16 | 99% | activity at 1 µM [2, 16]: 207%; Fractional motility [2, 14]: 73.31; Fractional motility [2, 15]: 9.20; motility phenotype in words ([2]; schistosomulae, after 24 h exposure): high levels of hypermotility |
| CCCCCCCCc1ccc(CCC(N)(CO)CO)cc1 [Fingolimod] | dark, granulated | 151% | 180% | 2.04 | -1.00 | -0.39 | 0.65 | -0.09 | -0.15 | 0% |  |
| COc1cc(N2CCN(C)CC2)ccc1Nc1nccc(-c2cn(C)c3cnccc23)n1 [AZ191] | granulated, blebbing | 49% | -38% | -0.69 | -0.09 | -0.48 | 0.25 | -0.27 | 2.64 | 89.5% |  |
| CNCc1ccc(C)c(NC(=O)c2ccc(Nc3nc(-c4ccccc4)c4ccccc4n3)cc2)c1 [BMS-833923] | big, granulated | -48% | 10% | 10.40 | -0.90 | -0.84 | -0.59 | -0.64 | 0.14 | 32.5% |  |
| CN1CCC(CNc2ccc3ncc(-c4cccc(OC(F)(F)F)c4)n3n2)CC1 [SGI-1776] | dark |  |  |  |  | 3.98 | 9.87 | 0.50 | 0.36 | 92.5% | activity at 1 µM [2, 16]: 35%; Fractional motility [2, 14]: 121.95; Fractional motility [2, 15]: 114.81; stimulated motility relative to control ([2]; schistosomulae, throughout the course of the experiment): > 100 fold |
